Assay [1] relates to HuH-7 hepatocellular carcinoma cells. As to the kind of experiment: CellTiter Glo (CTG) Assay. Particulars: Homo sapiens, Huh-7, 72 h, read-out: HUH7 proliferation (nM) CTG. (Cellular ATP, detected with luciferase, serves as a proxy for viable cell number.)
The next assay has as its target Tel-FGFR4 (Homo sapiens (Human), UniProt P22455). As to the kind of experiment: In vitro cellular kinase assay for FGFR4 (BaF3-Tel-FGFR4 cells, MSD capture ELISA of tyrosine phosphorylation). It is filed as cell-based. (ELISA stands for enzyme-linked immunosorbent assay.)
Assay [2] has as its target FGFR4 (GST-FGFR4(388-802)) (Homo sapiens (Human), UniProt P22455). Briefly: In-vitro biochemical kinase assay for FGFR4 (Caliper microfluidic mobility shift). Particulars: biochemical FGFR4 assay; read-out: Biochemical IC50.
The mark [3] stands for this setting: Cellular BaF3 FGFR4 assay, read-out: Cellular IC50.

Each structure is given as a SMILES string. Read-outs that look alike come from different tables or passages of the source.

Among the data in patent publication US9266883B2, “Ring-fused bicyclic pyridyl derivatives as FGFR4 inhibitors” (Novartis AG, priority 2013, dated 2016) are IC50 values, retold here.

Chain of FGFR4 (GST-FGFR4(388-802)) (P22455 388-802): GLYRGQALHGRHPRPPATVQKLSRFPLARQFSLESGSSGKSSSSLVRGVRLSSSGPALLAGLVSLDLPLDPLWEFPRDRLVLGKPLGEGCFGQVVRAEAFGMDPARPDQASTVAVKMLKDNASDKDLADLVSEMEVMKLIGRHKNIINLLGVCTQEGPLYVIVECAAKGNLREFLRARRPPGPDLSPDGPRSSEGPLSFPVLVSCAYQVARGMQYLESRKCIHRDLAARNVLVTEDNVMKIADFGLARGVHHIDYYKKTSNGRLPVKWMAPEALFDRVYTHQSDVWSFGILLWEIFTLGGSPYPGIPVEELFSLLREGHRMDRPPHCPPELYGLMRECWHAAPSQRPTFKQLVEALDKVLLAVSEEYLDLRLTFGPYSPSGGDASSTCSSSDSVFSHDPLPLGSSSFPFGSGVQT
Chain of Tel-FGFR4 (P22455 other isoform, or with tags, fused parts or gaps): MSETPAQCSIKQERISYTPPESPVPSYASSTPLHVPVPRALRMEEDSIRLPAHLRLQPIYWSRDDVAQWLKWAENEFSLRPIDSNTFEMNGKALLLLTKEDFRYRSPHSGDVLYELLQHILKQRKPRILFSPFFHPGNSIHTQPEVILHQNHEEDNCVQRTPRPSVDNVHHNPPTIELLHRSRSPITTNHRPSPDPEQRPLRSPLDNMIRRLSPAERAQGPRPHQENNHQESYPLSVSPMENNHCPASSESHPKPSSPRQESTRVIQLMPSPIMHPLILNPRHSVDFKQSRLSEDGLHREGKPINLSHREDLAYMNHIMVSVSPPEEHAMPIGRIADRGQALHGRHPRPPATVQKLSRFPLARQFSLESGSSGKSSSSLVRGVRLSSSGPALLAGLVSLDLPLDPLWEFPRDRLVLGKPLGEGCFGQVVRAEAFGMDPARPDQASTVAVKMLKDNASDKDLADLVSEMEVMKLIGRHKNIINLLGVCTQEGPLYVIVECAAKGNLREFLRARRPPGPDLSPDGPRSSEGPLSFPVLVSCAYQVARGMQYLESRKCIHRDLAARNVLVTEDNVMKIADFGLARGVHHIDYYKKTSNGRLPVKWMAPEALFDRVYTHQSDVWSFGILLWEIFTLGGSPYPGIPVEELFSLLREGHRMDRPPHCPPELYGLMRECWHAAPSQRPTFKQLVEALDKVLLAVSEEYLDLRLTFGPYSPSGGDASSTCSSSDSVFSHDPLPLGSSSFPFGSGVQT

In the case of `N#Cc1cnc(NC(=O)N2CCCc3ccc(C=O)nc32)cc1OCC1CCCCO1` (racemic) [Example 36, N-(5-cyano-4-((tetrahydro-2H-pyran-2-yl)methoxy)pyridin-2-yl)-7-formyl-3,4-dihydro-1,8-naphthyridine-1(2H)-carboxamide], the IC50 in assay [1] was above 3000 nM.
Turning to `CN1CCCC(COc2cc(NC(=O)N3CCCc4cc(CO)c(C=O)nc43)ncc2C#N)C1` (racemic) [Example 73, N-(5-cyano-4-((1-methylpiperidin-3-yl)methoxy)pyridin-2-yl)-7-formyl-6-(hydroxymethyl)-3,4-dihydro-1,8-naphthyridine-1(2H)-carboxamide], the IC50 in assay [1] turned out to be 502 nM.
The same measure, in the same setting: under `COCCNc1cc(NC(=O)N2CCCc3cc(C(C)N(C)C(C)=O)c(C=O)nc32)ncc1C#N` (racemic) [Example 135, N-(5-cyano-4-((2-methoxyethyl)amino)pyridin-2-yl)-7-formyl-6-(1-(N-methylacetamido)ethyl)-3,4-dihydro-1,8-naphthyridine-1(2H)-carboxamide] stands 2850 nM; under `COCCNc1cc(NC(=O)N2CCCc3cc(CN4C(=O)COC[C@H]4C)c(C=O)nc32)ncc1C#N` [Example 118, (R)-N-(5-cyano-4-((2-methoxyethyl)amino)pyridin-2-yl)-7-formyl-6-((3-methyl-5-oxomorpholino)methyl)-3,4-dihydro-1,8-naphthyridine-1(2H)-carboxamide], 101 nM.
The same measure, in the same setting: the same measure for `COCCNc1cc(NC(=O)N2CCCc3cc(CN4C(=O)COC[C@@H]4C)c(C=O)nc32)ncc1C#N` [Example 120, (S)-N-(5-cyano-4-((2-methoxyethyl)amino)pyridin-2-yl)-7-formyl-6-((3-methyl-5-oxomorpholino)methyl)-3,4-dihydro-1,8-naphthyridine-1(2H)-carboxamide]: 160 nM; for `COCCNc1cc(NC(=O)N2CCCc3cc(CN4CCCC45COC5)c(C=O)nc32)ncc1C#N` [Example 193, 6-(2-oxa-5-azaspiro[3.4]octan-5-ylmethyl)-N-(5-cyano-4-((2-methoxyethyl)amino)pyridin-2-yl)-7-formyl-3,4-dihydro-1,8-naphthyridine-1(2H)-carboxamide]: 2780 nM.
In the case of `CN1CCN(Cc2cc3c(nc2C=O)N(C(=O)Nc2cc(NCCOC(C)(C)C)c(C#N)cn2)CCC3)C(=O)C1` [Example 196, N-(4-((2-(tert-butoxy)ethyl)amino)-5-cyanopyridin-2-yl)-7-formyl-6-((4-methyl-2-oxopiperazin-1-yl)methyl)-3,4-dihydro-1,8-naphthyridine-1(2H)-carboxamide], the IC50 in assay [1] turned out to be 150 nM; at Tel-FGFR4 (BaF3-Tel-FGFR4 cells, 1 hour incubation, read-out: Cellular BaF3 FGFR4 IC50), 18 nM.
With `COCCOc1cc(NC(=O)N2c3nc(C=O)c(CN4CCN(C)CC4=O)cc3CC[C@@H]2C)ncc1C#N` [Example 226, (S)-N-(5-cyano-4-(2-methoxyethoxyl)pyridin-2-yl)-7-formyl-2-methyl-6-((4-methyl-2-oxopiperazin-1-yl)methyl)-3,4-dihydro-1,8-naphthyridine-1(2H)-carboxamide], the IC50 in assay [1] is 134 nM.
On the same count and under the same terms, under `CC(C)Oc1cc(NC(=O)N2c3nc(C=O)c(CN4CCN(C)CC4=O)cc3CC[C@@H]2C)ncc1C#N` [Example 227, (S)-N-(5-cyano-4-isopropoxypyridin-2-yl)-7-formyl-2-methyl-6-((4-methyl-2-oxopiperazin-1-yl)methyl)-3,4-dihydro-1,8-naphthyridine-1(2H)-carboxamide] stands 104 nM; under `COCCNc1cc(NC(=O)N2CCCc3cc(-c4cccnc4)c(C=O)nc32)ncc1C#N` [Example 256, N-(5-cyano-4-((2-methoxyethyl)amino)pyridin-2-yl)-7-formyl-6-(pyridin-3-yl)-3,4-dihydro-1,8-naphthyridine-1(2H)-carboxamide], 1360 nM.
As to `CC(C)Oc1cc(NC(=O)N2CCCc3cc(CN4CCNC(=O)C4)c(C=O)nc32)ncc1C#N` [N-(5-cyano-4-isopropoxypyridin-2-yl)-7-formyl-6-((3-oxopiperazin-1-yl)methyl)-3,4-dihydro-1,8-naphthyridine-1(2H)-carboxamide], the figures for the IC50 (at Tel-FGFR4 (setting [3]); in assay [2]) were 23.5 nM and 1.6 nM, respectively.
As for `CC(C)Oc1cc(NC(=O)N2CCCc3cc(CN4CCN(C)C(=O)C4)c(C=O)nc32)ncc1C#N` [N-(5-cyano-4-isopropoxypyridin-2-yl)-7-formyl-6-((4-methyl-3-oxopiperazin-1-yl)methyl)-3,4-dihydro-1,8-naphthyridine-1(2H)-carboxamide], the IC50 worked out at 17 nM on Tel-FGFR4 (setting [3]) and 1.7 nM in assay [2].
On the same counts, the results for `CC(C)Oc1cc(NC(=O)N2CCCc3cc(CN4CCN(C)CC4)c(C=O)nc32)ncc1C#N` [N-(5-cyano-4-isopropoxypyridin-2-yl)-7-formyl-6-((4-methylpiperazin-1-yl)methyl)-3,4-dihydro-1,8-naphthyridine-1(2H)-carboxamide] are 55.5 nM and 3 nM.
On the same counts, the results for `CC(C)Oc1cc(NC(=O)N2CCCc3cc(CN(C)C(=O)C(C)C)c(C=O)nc32)ncc1C#N` [N-(5-cyano-4-isopropoxypyridin-2-yl)-7-formyl-6-((N-methylisobutyramido)methyl)-3,4-dihydro-1,8-naphthyridine-1(2H)-carboxamide] are 12.5 nM and 1.2 nM.
`CCC(=O)N(C)Cc1cc2c(nc1C=O)N(C(=O)Nc1cc(OC(C)C)c(C#N)cn1)CCC2` [N-(5-cyano-4-isopropoxypyridin-2-yl)-7-formyl-6-((N-methylpropionamido)methyl)-3,4-dihydro-1,8-naphthyridine-1(2H)-carboxamide]: the IC50 on Tel-FGFR4 (setting [3]) was 18.5 nM; at Tel-FGFR4 (measured and considered as outlier values, not included in the table or list, read-out: IC50 in the cellular BaF3 FGFR4 assay, outlier values), above 3000 nM; in assay [2] it was 0.9 nM.
As to `CC(C)Oc1cc(NC(=O)N2CCCc3cc(CO)c(C=O)nc32)ncc1C#N` [N-(5-cyano-4-isopropoxypyridin-2-yl)-7-formyl-6-(hydroxymethyl)-3,4-dihydro-1,8-naphthyridine-1(2H)-carboxamide], the figures for the IC50 (at Tel-FGFR4 (setting [3]); in assay [2]) were 9.1 nM and 2.8 nM, respectively.
Take `CC(C)Oc1cc(NC(=O)N2CCCc3cc(CN4CCCC4)c(C=O)nc32)ncc1C#N` [N-(5-cyano-4-isopropoxypyridin-2-yl)-7-formyl-6-(pyrrolidin-1-ylmethyl)-3,4-dihydro-1,8-naphthyridine-1(2H)-carboxamide]: the IC50 at Tel-FGFR4 (setting [3]) turned out to be 854 nM; in assay [2], 26.4 nM.
For `COc1cc(NC(=O)N2CCCc3cc(CN4CCCC4(C)C)c(C=O)nc32)ncc1C#N` [N-(5-cyano-4-methoxypyridin-2-yl)-6-((2,2-dimethylpyrrolidin-1-yl)methyl)-7-formyl-3,4-dihydro-1,8-naphthyridine-1(2H)-carboxamide], the figures for the IC50 (at Tel-FGFR4 (setting [3]); in assay [2]) were above 3000 nM and 440 nM, respectively.
On the same counts, the results for `COc1cc(NC(=O)N2CCCc3cc(CN4CCN(C)CC4=O)c(C=O)nc32)ncc1C#N` [N-(5-cyano-4-methoxypyridin-2-yl)-7-formyl-6-((4-methyl-2-oxopiperazin-1-yl)methyl)-3,4-dihydro-1,8-naphthyridine-1(2H)-carboxamide] are 10.2 nM and 4.8 nM.
For `COc1nc(NC(=O)N2CCCc3cc(CN4CCN(C)CC4=O)c(C=O)nc32)ncc1C#N` [N-(5-cyano-4-methoxypyrimidin-2-yl)-7-formyl-6-((4-methyl-2-oxopiperazin-1-yl)methyl)-3,4-dihydro-1,8-naphthyridine-1(2H)-carboxamide] the same measures were 75 nM and 49 nM.
